Source: PubChem BioAssay (NCI)
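Exposure lasted 48 hours, with cells grown in 96-well plates and compounds tested at five concentrations. TGI: concentration producing complete growth inhibition.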

Columns and labels:
Assay in all cases: NCI tumour cell line growth inhibition, 48 h
786-0 renal = system: 786-0 renal
A498 renal = system: A498 renal
A549 NSCLC = system: A549 NSCLC
ACHN renal = system: ACHN renal
BT-549 breast = system: BT-549 breast
CAKI-1 renal = system: CAKI-1 renal
COLO 205 colon = system: COLO 205 colon
DU-145 prostate = system: DU-145 prostate
EKVX NSCLC = system: EKVX NSCLC
HCC-2998 colon = system: HCC-2998 colon
HCT-116 colon = system: HCT-116 colon
HCT-15 colon = system: HCT-15 colon
HOP-62 NSCLC = system: HOP-62 NSCLC
HOP-92 NSCLC = system: HOP-92 NSCLC
IGROV1 ovarian = system: IGROV1 ovarian
KM12 colon = system: KM12 colon
M14 melanoma = system: M14 melanoma
MALME-3M melanoma = system: MALME-3M melanoma
MCF7 breast = system: MCF7 breast
MDA-MB-231 breast = system: MDA-MB-231 breast
MDA-MB-435 = system: MDA-MB-435
MDA-N = system: MDA-N
NCI-H226 lung = system: NCI-H226 lung
NCI-H23 lung = system: NCI-H23 lung
NCI-H460 lung = system: NCI-H460 lung
NCI-H522 lung = system: NCI-H522 lung
NCI/ADR-RES ovarian = system: NCI/ADR-RES ovarian
OVCAR-3 ovarian = system: OVCAR-3 ovarian
OVCAR-4 ovarian = system: OVCAR-4 ovarian
OVCAR-5 ovarian = system: OVCAR-5 ovarian
PC-3 prostate = system: PC-3 prostate
RPMI-8226 leukemia = system: RPMI-8226 leukemia
SF-268 CNS = system: SF-268 CNS
SF-295 CNS = system: SF-295 CNS
SK-MEL-2 melanoma = system: SK-MEL-2 melanoma
SK-MEL-28 melanoma = system: SK-MEL-28 melanoma
SK-MEL-5 melanoma = system: SK-MEL-5 melanoma
SK-OV-3 ovarian = system: SK-OV-3 ovarian
SN12C renal = system: SN12C renal
SNB-19 CNS = system: SNB-19 CNS
SNB-75 CNS = system: SNB-75 CNS
T-47D breast = system: T-47D breast
TK-10 renal = system: TK-10 renal
U251 CNS = system: U251 CNS
UACC-257 melanoma = system: UACC-257 melanoma
UACC-62 melanoma = system: UACC-62 melanoma
UO-31 renal = system: UO-31 renal
CCRF-CEM leukemia = system: CCRF-CEM leukemia
HL-60(TB) leukemia = system: HL-60(TB) leukemia
HS 578T breast = system: HS 578T breast
HT29 colon = system: HT29 colon
K-562 leukemia = system: K-562 leukemia
LOX IMVI melanoma = system: LOX IMVI melanoma
MOLT-4 leukemia = system: MOLT-4 leukemia
OVCAR-8 ovarian = system: OVCAR-8 ovarian
RXF 393 renal = system: RXF 393 renal
SF-539 CNS = system: SF-539 CNS
SR leukemia = system: SR leukemia
SW-620 colon = system: SW-620 colon

CCCCc1c(C(=O)OC(C)(C)C)cc(C#Cc2cc(C(=O)OC(C)(C)C)c(CCCC)c(C(=O)OC(C)(C)C)c2)cc1C(=O)OC(C)(C)C
TGI (786-0 renal): > 100 µM
TGI (A498 renal): > 100 µM
TGI (A549 NSCLC): > 100 µM
TGI (ACHN renal): > 100 µM
TGI (BT-549 breast): > 100 µM
TGI (CAKI-1 renal): > 100 µM
TGI (COLO 205 colon): > 100 µM
TGI (DU-145 prostate): > 100 µM
TGI (EKVX NSCLC): > 100 µM
TGI (HCC-2998 colon): > 100 µM
TGI (HCT-116 colon): > 100 µM
TGI (HCT-15 colon): > 100 µM
TGI (HOP-62 NSCLC): > 100 µM
TGI (HOP-92 NSCLC): > 100 µM
TGI (IGROV1 ovarian): > 100 µM
TGI (KM12 colon): > 100 µM
TGI (M14 melanoma): > 100 µM
TGI (MALME-3M melanoma): > 100 µM
TGI (MCF7 breast): > 100 µM
TGI (MDA-MB-231 breast): > 100 µM
TGI (MDA-MB-435): > 100 µM
TGI (MDA-N): > 100 µM
TGI (NCI-H226 lung): > 100 µM
TGI (NCI-H23 lung): > 100 µM
TGI (NCI-H460 lung): > 100 µM
TGI (NCI-H522 lung): > 100 µM
TGI (NCI/ADR-RES ovarian): > 100 µM
TGI (OVCAR-3 ovarian): > 100 µM
TGI (OVCAR-4 ovarian): > 100 µM
TGI (OVCAR-5 ovarian): > 100 µM
TGI (PC-3 prostate): > 100 µM
TGI (RPMI-8226 leukemia): > 100 µM
TGI (SF-268 CNS): > 100 µM
TGI (SF-295 CNS): > 100 µM
TGI (SK-MEL-2 melanoma): > 100 µM
TGI (SK-MEL-28 melanoma): > 100 µM
TGI (SK-MEL-5 melanoma): > 100 µM
TGI (SK-OV-3 ovarian): > 100 µM
TGI (SN12C renal): > 100 µM
TGI (SNB-19 CNS): > 100 µM
TGI (SNB-75 CNS): > 100 µM
TGI (T-47D breast): > 100 µM
TGI (TK-10 renal): > 100 µM
TGI (U251 CNS): > 100 µM
TGI (UACC-257 melanoma): > 100 µM
TGI (UACC-62 melanoma): > 100 µM
TGI (UO-31 renal): > 100 µM

O=c1[nH]nc(-c2ccccc2)n1/N=C/c1ccncc1
TGI (786-0 renal): > 100 µM
TGI (A498 renal): 71.6 µM
TGI (A549 NSCLC): > 100 µM
TGI (ACHN renal): > 100 µM
TGI (BT-549 breast): > 100 µM
TGI (CAKI-1 renal): > 100 µM
TGI (CCRF-CEM leukemia): > 100 µM
TGI (COLO 205 colon): > 100 µM
TGI (DU-145 prostate): > 100 µM
TGI (EKVX NSCLC): > 100 µM
TGI (HCC-2998 colon): > 100 µM
TGI (HCT-116 colon): > 100 µM
TGI (HCT-15 colon): > 100 µM
TGI (HL-60(TB) leukemia): > 100 µM
TGI (HOP-62 NSCLC): > 100 µM
TGI (HOP-92 NSCLC): > 100 µM
TGI (HS 578T breast): 97.3 µM
TGI (HT29 colon): > 100 µM
TGI (IGROV1 ovarian): > 100 µM
TGI (K-562 leukemia): > 100 µM
TGI (KM12 colon): > 100 µM
TGI (LOX IMVI melanoma): > 100 µM
TGI (M14 melanoma): > 100 µM
TGI (MALME-3M melanoma): > 100 µM
TGI (MCF7 breast): > 100 µM
TGI (MDA-MB-435): > 100 µM
TGI (MDA-N): > 100 µM
TGI (MOLT-4 leukemia): > 100 µM
TGI (NCI-H226 lung): > 100 µM
TGI (NCI-H23 lung): > 100 µM
TGI (NCI-H460 lung): > 100 µM
TGI (NCI-H522 lung): > 100 µM
TGI (NCI/ADR-RES ovarian): > 100 µM
TGI (OVCAR-3 ovarian): > 100 µM
TGI (OVCAR-4 ovarian): > 100 µM
TGI (OVCAR-5 ovarian): > 100 µM
TGI (OVCAR-8 ovarian): > 100 µM
TGI (PC-3 prostate): > 100 µM
TGI (RPMI-8226 leukemia): > 100 µM
TGI (RXF 393 renal): > 100 µM
TGI (SF-268 CNS): > 100 µM
TGI (SF-295 CNS): > 100 µM
TGI (SF-539 CNS): > 100 µM
TGI (SK-MEL-28 melanoma): > 100 µM
TGI (SK-MEL-5 melanoma): > 100 µM
TGI (SN12C renal): > 100 µM
TGI (SNB-19 CNS): > 100 µM
TGI (SNB-75 CNS): > 100 µM
TGI (SR leukemia): > 100 µM
TGI (SW-620 colon): > 100 µM
TGI (T-47D breast): > 100 µM
TGI (TK-10 renal): > 100 µM
TGI (U251 CNS): > 100 µM
TGI (UACC-257 melanoma): > 100 µM
TGI (UACC-62 melanoma): > 100 µM
TGI (UO-31 renal): > 100 µM

c1ccc(C2=Nc3nc4ccccc4n3C(c3ccccc3)C2)cc1 (centres undefined)
TGI (786-0 renal): > 100 µM
TGI (A498 renal): > 100 µM
TGI (A549 NSCLC): > 100 µM
TGI (ACHN renal): > 100 µM
TGI (BT-549 breast): > 100 µM
TGI (CAKI-1 renal): > 100 µM
TGI (CCRF-CEM leukemia): > 100 µM
TGI (COLO 205 colon): > 100 µM
TGI (EKVX NSCLC): > 100 µM
TGI (HCT-116 colon): > 100 µM
TGI (HCT-15 colon): > 100 µM
TGI (HL-60(TB) leukemia): > 100 µM
TGI (HOP-62 NSCLC): > 100 µM
TGI (HOP-92 NSCLC): > 100 µM
TGI (HS 578T breast): > 100 µM
TGI (HT29 colon): > 100 µM
TGI (IGROV1 ovarian): > 100 µM
TGI (K-562 leukemia): > 100 µM
TGI (KM12 colon): > 100 µM
TGI (LOX IMVI melanoma): > 100 µM
TGI (M14 melanoma): > 100 µM
TGI (MALME-3M melanoma): > 100 µM
TGI (MCF7 breast): > 100 µM
TGI (MDA-MB-231 breast): > 100 µM
TGI (MDA-MB-435): > 100 µM
TGI (MDA-N): > 100 µM
TGI (MOLT-4 leukemia): > 100 µM
TGI (NCI-H226 lung): > 100 µM
TGI (NCI-H23 lung): > 100 µM
TGI (NCI-H460 lung): > 100 µM
TGI (NCI-H522 lung): > 100 µM
TGI (NCI/ADR-RES ovarian): > 100 µM
TGI (OVCAR-3 ovarian): > 100 µM
TGI (OVCAR-4 ovarian): > 100 µM
TGI (OVCAR-5 ovarian): > 100 µM
TGI (OVCAR-8 ovarian): > 100 µM
TGI (PC-3 prostate): > 100 µM
TGI (RPMI-8226 leukemia): > 100 µM
TGI (RXF 393 renal): > 100 µM
TGI (SF-268 CNS): > 100 µM
TGI (SF-295 CNS): > 100 µM
TGI (SF-539 CNS): > 100 µM
TGI (SK-MEL-2 melanoma): > 100 µM
TGI (SK-MEL-28 melanoma): > 100 µM
TGI (SK-MEL-5 melanoma): > 100 µM
TGI (SK-OV-3 ovarian): > 100 µM
TGI (SNB-19 CNS): > 100 µM
TGI (SNB-75 CNS): > 100 µM
TGI (SR leukemia): > 100 µM
TGI (SW-620 colon): > 100 µM
TGI (T-47D breast): > 100 µM
TGI (TK-10 renal): > 100 µM
TGI (U251 CNS): > 100 µM
TGI (UACC-257 melanoma): > 100 µM
TGI (UACC-62 melanoma): > 100 µM
TGI (UO-31 renal): > 100 µM
